The supplement of paper PMC7017272
± gives the standard deviation of the averaged measurements.

Assays:
UT-SCC-24A [1] = assay: drug sensitivity score (DSS); higher = more sensitive; details: treatment time: 3 days
Protocol: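 HNSCC cell lines (500 cells/well, 384-well) were cultured on plastic, on top of (2D) or embedded (3D) in Matrigel or human leiomyoma matrix Myogel (500 ug/mL; Myogel 3D mixed with rat collagen I). Cells were treated for 3 days with 5 ten-fold concentrations of each drug, and viability was read by CellTiter-Glo. Suffixes _1/_2/_3 on drug names are replicates.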

UT-SCC-106A [2] = assay: maximal % inhibition of viability relative to DMSO; higher = stronger effect; details: treatment time: 3 days
Protocol: (§1)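 HNSCC cell lines (500 cells/well, 384-well) were cultured on plastic, on top of (2D) or embedded (3D) in Matrigel or human leiomyoma matrix Myogel (500 ug/mL; Myogel 3D mixed with rat collagen I). Cells were treated for 3 days with 5 ten-fold concentrations of each drug, and viability was read by CellTiter-Glo. Viability was normalised to DMSO and benzethonium chloride controls and fitted with the FIMM DSRT pipeline to give IC50 (nM), maximal % inhibition and DSS. Suffixes _1/_2/_3 are replicates. Only inhibition-mode (IC50) fits are kept.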

UT-SCC-14 = assay: as above; details: treatment time: 3 days
Protocol: as §1

UT-SCC-24B [3] = assay: as above; details: treatment time: 3 days
Protocol: as §1

UT-SCC-28 [4] = assay: as above; details: treatment time: 3 days
Protocol: as §1

UT-SCC-40 [5] = assay: as above; details: treatment time: 3 days
Protocol: as §1

UT-SCC-42A = assay: as above; details: treatment time: 3 days
Protocol: as §1

UT-SCC-42B = assay: as above; details: treatment time: 3 days
Protocol: as §1

UT-SCC-44 = assay: as above; details: treatment time: 3 days
Protocol: as §1

UT-SCC-73 = assay: as above; details: treatment time: 3 days
Protocol: as §1

UT-SCC-81 = assay: as above; details: treatment time: 3 days
Protocol: as §1

UT-SCC-8 = assay: as above; details: treatment time: 3 days
Protocol: as §1

UT-SCC-24A [6] = assay: as above; details: treatment time: 3 days
Protocol: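 HNSCC cell lines (500 cells/well, 384-well) were cultured on plastic, on top of (2D) or embedded (3D) in Matrigel or human leiomyoma matrix Myogel (500 ug/mL; Myogel 3D mixed with rat collagen I). Cells were treated for 3 days with 5 ten-fold concentrations of each drug, and viability was read by CellTiter-Glo. Viability was normalised to DMSO (0% inhibition) and 100 uM benzethonium chloride (100% inhibition) controls and fitted with the FIMM DSRT pipeline to give IC50 (nM), maximal % inhibition and the drug sensitivity score (DSS). Suffixes _1/_2/_3 on drug names are replicates.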

UT-SCC-106A [7] = assay: relative IC50 (midpoint of the fitted curve; maximal inhibition may be below 50%); higher = less potent; details: treatment time: 3 days
In short: (§2)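 Viability was read with CellTiter-Glo 2.0 luminescence and scaled against vehicle (0.1% DMSO) and cell-killing control wells. The assay used HPV-negative HNSCC cell lines at 500 cells/well in 384-well plates, grown on plastic, on Matrigel or Myogel coatings (500 µg/mL), or embedded in Matrigel or Myogel plus rat collagen I, and treated for 3 days at five 10-fold concentrations. IC50, maximal inhibition and drug sensitivity score were derived from percent-inhibition dose–response curves fitted in the FIMM pipeline.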

UT-SCC-24B [8] = assay: as above; details: culture condition: on top of Myogel; treatment time: 3 days
In short: as §2

UT-SCC-28 [9] = assay: as above; details: culture condition: embedded in Myogel + collagen I; treatment time: 3 days
In short: as §2

UT-SCC-40 [10] = assay: as above; details: treatment time: 3 days
In short: as §2

[11] = culture condition: embedded in Matrigel
[12] = culture condition: embedded in Myogel + collagen I
[13] = culture condition: on top of Matrigel
[14] = culture condition: on top of Myogel
[15] = culture condition: plastic 2D (no matrix)

Question: `CO[C@H]1C[C@@H]2CC[C@@H](C)[C@@](O)(O2)C(=O)C(=O)N2CCCC[C@H]2C(=O)O[C@H]([C@H](C)C[C@@H]2CC[C@@H](OCCO)[C@H](OC)C2)CC(=O)[C@H](C)/C=C(\C)[C@@H](O)[C@@H](OC)C(=O)[C@H](C)C[C@H](C)/C=C/C=C/C=C/1C` [Everolimus] was tested. Which drug sensitivity score (UT-SCC-24A [1]; [11]) did it give?
Answer: 3.6 ± 6.2 DSS

Question: And the drug sensitivity score (UT-SCC-24A [1]; [12])?
Answer: 6.43 ± 3 DSS

Question: And the drug sensitivity score (UT-SCC-24A [1]; [13])?
Answer: 2.93 ± 2.3 DSS

Question: What about the drug sensitivity score (UT-SCC-24A [1]; [14]) of the same compound?
Answer: 2.57 ± 0.21 DSS

Question: What about the drug sensitivity score (UT-SCC-24A [1]; [15]) of the same compound?
Answer: 2.57 ± 0.25 DSS

Question: What about the “maximal % inhibition of viability” value (UT-SCC-106A [2]; [11]) of the same compound?
Answer: 30.8 ± 12%

Question: What about the “maximal % inhibition of viability” value (UT-SCC-106A [2]; [12]) of the same compound?
Answer: 20.6 ± 4.6%

Question: What about the “maximal % inhibition of viability” value (UT-SCC-106A [2]; [13]) of the same compound?
Answer: 40.7 ± 13%

Question: What about the “maximal % inhibition of viability” value (UT-SCC-106A [2]; [14]) of the same compound?
Answer: 21.3 ± 5%

Question: And the “maximal % inhibition of viability” value (UT-SCC-106A [2]; [15])?
Answer: 50.1 ± 11%

Question: And the “maximal % inhibition of viability” value (UT-SCC-14; [11])?
Answer: 58 ± 10%

Question: What about the “maximal % inhibition of viability” value (UT-SCC-14; [12]) of the same compound?
Answer: 50.9 ± 5.5%

Question: What about the “maximal % inhibition of viability” value (UT-SCC-14; [13]) of the same compound?
Answer: 47.6 ± 5.8%

Question: And the “maximal % inhibition of viability” value (UT-SCC-14; [14])?
Answer: 42.6 ± 0.36%

Question: What about the “maximal % inhibition of viability” value (UT-SCC-14; [15]) of the same compound?
Answer: 46.4 ± 8.9%

Question: And the “maximal % inhibition of viability” value (UT-SCC-24B [3]; [11])?
Answer: 28.7 ± 6.1%

Question: What about the “maximal % inhibition of viability” value (UT-SCC-24B [3]; [12]) of the same compound?
Answer: 44.8 ± 5.3%

Question: What about the “maximal % inhibition of viability” value (UT-SCC-24B [3]; [13]) of the same compound?
Answer: 18.1 ± 0.91%

Question: What about the “maximal % inhibition of viability” value (UT-SCC-24B [3]; [14]) of the same compound?
Answer: 30.1 ± 8.6%

Question: And the “maximal % inhibition of viability” value (UT-SCC-24B [3]; [15])?
Answer: 24.9 ± 3%

Question: And the “maximal % inhibition of viability” value (UT-SCC-28 [4]; [11])?
Answer: 28.6 ± 11%

Question: What about the “maximal % inhibition of viability” value (UT-SCC-28 [4]; [12]) of the same compound?
Answer: 27.7 ± 7.6%

Question: What about the “maximal % inhibition of viability” value (UT-SCC-28 [4]; [13]) of the same compound?
Answer: 28.2 ± 6.3%

Question: And the “maximal % inhibition of viability” value (UT-SCC-28 [4]; [15])?
Answer: 28.1 ± 8.8%

Question: And the “maximal % inhibition of viability” value (UT-SCC-40 [5]; [11])?
Answer: 27.2 ± 25%

Question: And the “maximal % inhibition of viability” value (UT-SCC-40 [5]; [12])?
Answer: 33.3 ± 4.4%

Question: What about the “maximal % inhibition of viability” value (UT-SCC-40 [5]; [13]) of the same compound?
Answer: 23.3 ± 5.5%

Question: What about the “maximal % inhibition of viability” value (UT-SCC-40 [5]; [14]) of the same compound?
Answer: 20.2 ± 10%

Question: And the “maximal % inhibition of viability” value (UT-SCC-40 [5]; [15])?
Answer: 21.6 ± 8.3%

Question: What about the “maximal % inhibition of viability” value (UT-SCC-42A; [11]) of the same compound?
Answer: 17.3 ± 9.2%

Question: And the “maximal % inhibition of viability” value (UT-SCC-42A; [12])?
Answer: 32.2 ± 2.5%

Question: And the “maximal % inhibition of viability” value (UT-SCC-42A; [13])?
Answer: 34.3 ± 6%

Question: What about the “maximal % inhibition of viability” value (UT-SCC-42A; [14]) of the same compound?
Answer: 33.1 ± 5%

Question: And the “maximal % inhibition of viability” value (UT-SCC-42A; [15])?
Answer: 29.9 ± 2.9%

Question: What about the “maximal % inhibition of viability” value (UT-SCC-42B; [11]) of the same compound?
Answer: 14.8 ± 5.8%

Question: And the “maximal % inhibition of viability” value (UT-SCC-42B; [13])?
Answer: 14.4 ± 2.9%

Question: And the “maximal % inhibition of viability” value (UT-SCC-42B; [14])?
Answer: 10.9 ± 2.4%

Question: What about the “maximal % inhibition of viability” value (UT-SCC-42B; [15]) of the same compound?
Answer: 12.6 ± 3.1%

Question: And the “maximal % inhibition of viability” value (UT-SCC-44; [11])?
Answer: 30.9 ± 17%

Question: And the “maximal % inhibition of viability” value (UT-SCC-44; [12])?
Answer: 45 ± 2.1%

Question: What about the “maximal % inhibition of viability” value (UT-SCC-44; [13]) of the same compound?
Answer: 34 ± 2.7%

Question: What about the “maximal % inhibition of viability” value (UT-SCC-44; [14]) of the same compound?
Answer: 37.7 ± 4.2%

Question: And the “maximal % inhibition of viability” value (UT-SCC-44; [15])?
Answer: 33.1 ± 5.5%

Question: And the “maximal % inhibition of viability” value (UT-SCC-73; [11])?
Answer: 22.8 ± 3.8%

Question: And the “maximal % inhibition of viability” value (UT-SCC-73; [12])?
Answer: 46.1 ± 20%

Question: What about the “maximal % inhibition of viability” value (UT-SCC-73; [13]) of the same compound?
Answer: 26 ± 4.4%

Question: And the “maximal % inhibition of viability” value (UT-SCC-73; [14])?
Answer: 34.8 ± 1.5%

Question: What about the “maximal % inhibition of viability” value (UT-SCC-73; [15]) of the same compound?
Answer: 28 ± 2.5%

Question: What about the “maximal % inhibition of viability” value (UT-SCC-81; [11]) of the same compound?
Answer: 43.5 ± 14%

Question: What about the “maximal % inhibition of viability” value (UT-SCC-81; [12]) of the same compound?
Answer: 54.1 ± 1.6%

Question: And the “maximal % inhibition of viability” value (UT-SCC-81; [13])?
Answer: 39.4 ± 3.5%

Question: What about the “maximal % inhibition of viability” value (UT-SCC-81; [14]) of the same compound?
Answer: 53.2 ± 3.5%

Question: And the “maximal % inhibition of viability” value (UT-SCC-81; [15])?
Answer: 46.8 ± 3.7%

Question: What about the “maximal % inhibition of viability” value (UT-SCC-8; [11]) of the same compound?
Answer: 39.1 ± 2.8%

Question: And the “maximal % inhibition of viability” value (UT-SCC-8; [12])?
Answer: 36.4 ± 12%

Question: And the “maximal % inhibition of viability” value (UT-SCC-8; [13])?
Answer: 36.6 ± 9.4%

Question: And the “maximal % inhibition of viability” value (UT-SCC-8; [14])?
Answer: 46.9 ± 14%

Question: What about the “maximal % inhibition of viability” value (UT-SCC-8; [15]) of the same compound?
Answer: 44.7 ± 11%

Question: And the “maximal % inhibition of viability” value (UT-SCC-24A [6]; [11])?
Answer: 51.3 ± 40%

Question: What about the “maximal % inhibition of viability” value (UT-SCC-24A [6]; [12]) of the same compound?
Answer: 33.2 ± 13%

Question: And the “maximal % inhibition of viability” value (UT-SCC-24A [6]; [13])?
Answer: 31.5 ± 13%

Question: And the “maximal % inhibition of viability” value (UT-SCC-24A [6]; [14])?
Answer: 26.8 ± 1.4%

Question: And the “maximal % inhibition of viability” value (UT-SCC-24A [6]; [15])?
Answer: 28.2 ± 2.9%

Question: And the “relative IC50” value (UT-SCC-106A [7]; [11])?
Answer: 28.4 nM

Question: And the “relative IC50” value (UT-SCC-106A [7]; [14])?
Answer: 8.1 nM

Question: What about the “relative IC50” value (UT-SCC-24B [8]) of the same compound?
Answer: 5.03 nM

Question: What about the “relative IC50” value (UT-SCC-28 [9]) of the same compound?
Answer: 6.89 nM

Question: And the “relative IC50” value (UT-SCC-40 [10]; [11])?
Answer: 4.61 nM

Question: What about the “relative IC50” value (UT-SCC-40 [10]; [15]) of the same compound?
Answer: 9.09 nM
